Results: the supplement of paper PMC10307832

Key:
Test in all cases: relative viability (nuclei count vs DMSO), 5 days (fraction); higher = more cells survive
BGJ398 + Olaparib = compound: CCN1CCN(c2ccc(Nc3cc(N(C)C(=O)Nc4c(Cl)c(OC)cc(OC)c4Cl)ncn3)cc2)CC1 [BGJ398] + O=C(c1cc(Cc2n[nH]c(=O)c3ccccc23)ccc1F)N1CCN(C(=O)C2CC2)CC1 [Olaparib] (partner 8 µM)
In short: (§1)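 Lung cancer cell lines in 1536-well plates were dosed by pin tool the day after seeding, either with one drug alone or with a fixed anchor-drug dose plus five library-drug doses (not always all listed) in √10 steps. After 5 days, cells were fixed and their nuclei stained in one step (final 0.05% Triton X-100, 1% formaldehyde, 1 ug/ml Hoechst), then counted on 4× images. Relative viability is the nuclei count in treated wells divided by that in vehicle wells. Values are medians of duplicate plates.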

BGJ398 + Crizotinib = compound: CCN1CCN(c2ccc(Nc3cc(N(C)C(=O)Nc4c(Cl)c(OC)cc(OC)c4Cl)ncn3)cc2)CC1 [BGJ398] + C[C@@H](Oc1cc(-c2cnn(C3CCNCC3)c2)cnc1N)c1c(Cl)ccc(F)c1Cl [Crizotinib] (partner 1 µM)
In short: as §1

[1] = compound: C1=CC2=NC=CN=C2C=C1/C=C/3\C(=O)NC(=O)S3 + C[C@]1(O)C[C@@H](c2nc(-c3ccc4ccc(-c5ccccc5)nc4c3)c3c(N)nccn32)C1 [Linsitinib] (partner 1 µM)
In short: as §1

BGJ398 + Pemetrexed = compound: CCN1CCN(c2ccc(Nc3cc(N(C)C(=O)Nc4c(Cl)c(OC)cc(OC)c4Cl)ncn3)cc2)CC1 [BGJ398] + Nc1nc2[nH]cc(CCc3ccc(C(=O)N[C@@H](CCC(=O)O)C(=O)O)cc3)c2c(=O)[nH]1 [Pemetrexed] (partner 0.2 µM)
In short: as §1

| Cell Line | relative viability (BGJ398 + Olaparib; first compound 0.01 µM) | relative viability (BGJ398 + Olaparib; first compound 0.03162 µM) | relative viability (BGJ398 + Olaparib; first compound 0.1 µM) | relative viability (BGJ398 + Olaparib; first compound 0.3162 µM) | relative viability (BGJ398 + Olaparib; first compound 1 µM) | relative viability (BGJ398 + Crizotinib; first compound 0.01 µM) | relative viability (BGJ398 + Crizotinib; first compound 0.03162 µM) | relative viability (BGJ398 + Crizotinib; first compound 0.1 µM) | relative viability (BGJ398 + Crizotinib; first compound 0.3162 µM) | relative viability (BGJ398 + Crizotinib; first compound 1 µM) | relative viability ([1]; first compound 0.02 µM) | relative viability ([1]; first compound 0.06325 µM) | relative viability ([1]; first compound 0.2 µM) | relative viability ([1]; first compound 0.6325 µM) | relative viability ([1]; first compound 2 µM) | relative viability (BGJ398 + Pemetrexed; first compound 0.01 µM) | relative viability (BGJ398 + Pemetrexed; first compound 0.03162 µM) | relative viability (BGJ398 + Pemetrexed; first compound 0.1 µM) | relative viability (BGJ398 + Pemetrexed; first compound 0.3162 µM) | relative viability (BGJ398 + Pemetrexed; first compound 1 µM) |
| --- | --- | --- | --- | --- | --- | --- | --- | --- | --- | --- | --- | --- | --- | --- | --- | --- | --- | --- | --- | --- |
| NCI-H2085 | 0.759 | 0.773 | 0.711 | 0.693 | 0.796 | 0.836 | 0.871 | 1.05 | 0.892 | 1.01 | 0.807 | 0.886 | 0.826 | 0.806 | 0.969 | 0.927 | 0.845 | 0.885 | 0.978 | 1.04 |
| NCI-H1734 | 0.504 | 0.622 | 0.627 | 0.609 | 0.607 | 0.611 | 0.647 | 0.719 | 0.594 | 0.554 | 0.856 | – | 0.853 | 0.789 | 0.841 | 0.405 | 0.403 | 0.405 | 0.378 | 0.415 |
| NCI-H2126 | 0.953 | 0.864 | 0.964 | 0.865 | 0.918 | 1.12 | 1.01 | 0.997 | 0.955 | 1.05 | 0.682 | 0.773 | 0.715 | 0.688 | 0.685 | 0.724 | 0.717 | 0.689 | 0.674 | 0.684 |
| EMC-BAC-2 | 0.456 | 0.568 | 0.519 | 0.547 | 0.456 | 0.726 | 0.816 | 0.798 | 0.746 | 0.669 | 0.765 | 0.906 | 0.822 | 0.808 | 0.869 | 0.432 | 0.483 | 0.477 | 0.477 | 0.471 |
